Test results reported in PubChem BioAssay (NCI).
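Step 1: Grow cells in 96-well plates. Step 2: Expose to compound for 48 hours at 5 concentrations. Step 3: Interpolate endpoints linearly; if unreached, use highest concentration. TGI denotes the concentration required for complete inhibition of growth.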

How the values were obtained:
Assay in all cases: NCI tumour cell line growth inhibition, 48 h
786-0 renal = system: 786-0 renal
A498 renal = system: A498 renal
A549 NSCLC = system: A549 NSCLC
ACHN renal = system: ACHN renal
CAKI-1 renal = system: CAKI-1 renal
CCRF-CEM leukemia = system: CCRF-CEM leukemia
COLO 205 colon = system: COLO 205 colon
DLD-1 colon = system: DLD-1 colon
DMS 114 small cell lung = system: DMS 114 small cell lung
DMS 273 small cell lung = system: DMS 273 small cell lung
EKVX NSCLC = system: EKVX NSCLC
HCC-2998 colon = system: HCC-2998 colon
HCT-116 colon = system: HCT-116 colon
HCT-15 colon = system: HCT-15 colon
HL-60(TB) leukemia = system: HL-60(TB) leukemia
HOP-18 NSCLC = system: HOP-18 NSCLC
HOP-62 NSCLC = system: HOP-62 NSCLC
HOP-92 NSCLC = system: HOP-92 NSCLC
HT29 colon = system: HT29 colon
IGROV1 ovarian = system: IGROV1 ovarian
K-562 leukemia = system: K-562 leukemia
KM12 colon = system: KM12 colon
KM20L2 colon = system: KM20L2 colon
LOX IMVI melanoma = system: LOX IMVI melanoma
LXFL 529 NSCLC = system: LXFL 529 NSCLC
M14 melanoma = system: M14 melanoma
M19-MEL melanoma = system: M19-MEL melanoma
MALME-3M melanoma = system: MALME-3M melanoma
MOLT-4 leukemia = system: MOLT-4 leukemia
NCI-H226 lung = system: NCI-H226 lung
NCI-H23 lung = system: NCI-H23 lung
NCI-H460 lung = system: NCI-H460 lung
NCI-H522 lung = system: NCI-H522 lung
OVCAR-3 ovarian = system: OVCAR-3 ovarian
OVCAR-4 ovarian = system: OVCAR-4 ovarian
OVCAR-5 ovarian = system: OVCAR-5 ovarian
OVCAR-8 ovarian = system: OVCAR-8 ovarian
RPMI-8226 leukemia = system: RPMI-8226 leukemia
RXF 393 renal = system: RXF 393 renal
RXF-631 renal = system: RXF-631 renal
SF-268 CNS = system: SF-268 CNS
SF-295 CNS = system: SF-295 CNS
SF-539 CNS = system: SF-539 CNS
SK-MEL-2 melanoma = system: SK-MEL-2 melanoma
SK-MEL-28 melanoma = system: SK-MEL-28 melanoma
SK-OV-3 ovarian = system: SK-OV-3 ovarian
SN12C renal = system: SN12C renal
SNB-19 CNS = system: SNB-19 CNS
SNB-75 CNS = system: SNB-75 CNS
SNB-78 CNS = system: SNB-78 CNS
SR leukemia = system: SR leukemia
SW-620 colon = system: SW-620 colon
TK-10 renal = system: TK-10 renal
U251 CNS = system: U251 CNS
UACC-257 melanoma = system: UACC-257 melanoma
UACC-62 melanoma = system: UACC-62 melanoma
UO-31 renal = system: UO-31 renal
XF 498 CNS = system: XF 498 CNS
MCF7 breast = system: MCF7 breast
NCI/ADR-RES ovarian = system: NCI/ADR-RES ovarian
P388 leukemia = system: P388 leukemia
P388/ADR leukemia = system: P388/ADR leukemia
SK-MEL-5 melanoma = system: SK-MEL-5 melanoma
SN12K1 renal = system: SN12K1 renal

## O=c1ncc(F)cn1C1OC(CO)C(O)C1O (centres undefined)
786-0 renal
  TGI: > 100 µM
A498 renal
  TGI: > 100 µM
A549 NSCLC
  TGI: > 100 µM
ACHN renal
  TGI: > 100 µM
CAKI-1 renal
  TGI: > 100 µM
CCRF-CEM leukemia
  TGI: > 63.6 µM
COLO 205 colon
  TGI: > 37.9 µM
DLD-1 colon
  TGI: > 100 µM
DMS 114 small cell lung
  TGI: > 41.9 µM
DMS 273 small cell lung
  TGI: > 44.6 µM
EKVX NSCLC
  TGI: > 100 µM
HCC-2998 colon
  TGI: > 51.4 µM
HCT-116 colon
  TGI: > 100 µM
HCT-15 colon
  TGI: > 100 µM
HL-60(TB) leukemia
  TGI: > 52 µM
HOP-18 NSCLC
  TGI: > 100 µM
HOP-62 NSCLC
  TGI: > 100 µM
HOP-92 NSCLC
  TGI: > 100 µM
HT29 colon
  TGI: > 73.3 µM
IGROV1 ovarian
  TGI: > 80 µM
K-562 leukemia
  TGI: > 100 µM
KM12 colon
  TGI: > 51.2 µM
KM20L2 colon
  TGI: > 70.6 µM
LOX IMVI melanoma
  TGI: > 59.8 µM
LXFL 529 NSCLC
  TGI: > 43.8 µM
M14 melanoma
  TGI: > 100 µM
M19-MEL melanoma
  TGI: > 54 µM
MALME-3M melanoma
  TGI: > 51.5 µM
MOLT-4 leukemia
  TGI: > 54.3 µM
NCI-H226 lung
  TGI: > 100 µM
NCI-H23 lung
  TGI: > 100 µM
NCI-H460 lung
  TGI: > 73 µM
NCI-H522 lung
  TGI: > 70.2 µM
OVCAR-3 ovarian
  TGI: > 67.4 µM
OVCAR-4 ovarian
  TGI: > 100 µM
OVCAR-5 ovarian
  TGI: > 100 µM
OVCAR-8 ovarian
  TGI: > 100 µM
RPMI-8226 leukemia
  TGI: > 100 µM
RXF 393 renal
  TGI: > 100 µM
RXF-631 renal
  TGI: > 100 µM
SF-268 CNS
  TGI: > 77.4 µM
SF-295 CNS
  TGI: > 100 µM
SF-539 CNS
  TGI: > 88 µM
SK-MEL-2 melanoma
  TGI: > 46.5 µM
SK-MEL-28 melanoma
  TGI: > 46.4 µM
SK-OV-3 ovarian
  TGI: > 100 µM
SN12C renal
  TGI: > 60.4 µM
SNB-19 CNS
  TGI: > 69 µM
SNB-75 CNS
  TGI: > 65.1 µM
SNB-78 CNS
  TGI: > 100 µM
SR leukemia
  TGI: > 46.8 µM
SW-620 colon
  TGI: > 100 µM
TK-10 renal
  TGI: > 100 µM
U251 CNS
  TGI: > 56.6 µM
UACC-257 melanoma
  TGI: > 55.3 µM
UACC-62 melanoma
  TGI: > 64.1 µM
UO-31 renal
  TGI: > 100 µM
XF 498 CNS
  TGI: > 100 µM

## COC1C(O)C(n2ncc3c(SC)nc(SC)nc32)OC1C(O)CO (centres undefined)
A498 renal
  TGI: > 100 µM
A549 NSCLC
  TGI: > 100 µM
CCRF-CEM leukemia
  TGI: > 100 µM
COLO 205 colon
  TGI: > 100 µM
DLD-1 colon
  TGI: > 100 µM
DMS 114 small cell lung
  TGI: > 100 µM
DMS 273 small cell lung
  TGI: > 100 µM
EKVX NSCLC
  TGI: > 100 µM
HCC-2998 colon
  TGI: > 100 µM
HCT-116 colon
  TGI: > 100 µM
HCT-15 colon
  TGI: > 100 µM
HL-60(TB) leukemia
  TGI: > 100 µM
HOP-18 NSCLC
  TGI: > 100 µM
HOP-62 NSCLC
  TGI: > 100 µM
HOP-92 NSCLC
  TGI: > 100 µM
HT29 colon
  TGI: > 100 µM
IGROV1 ovarian
  TGI: > 100 µM
K-562 leukemia
  TGI: > 100 µM
KM12 colon
  TGI: > 100 µM
KM20L2 colon
  TGI: > 100 µM
LOX IMVI melanoma
  TGI: > 100 µM
M19-MEL melanoma
  TGI: > 100 µM
MALME-3M melanoma
  TGI: > 100 µM
MCF7 breast
  TGI: > 100 µM
MOLT-4 leukemia
  TGI: > 100 µM
NCI-H226 lung
  TGI: > 100 µM
NCI-H23 lung
  TGI: > 100 µM
NCI-H460 lung
  TGI: > 100 µM
NCI-H522 lung
  TGI: > 100 µM
NCI/ADR-RES ovarian
  TGI: > 100 µM
OVCAR-3 ovarian
  TGI: > 100 µM
OVCAR-4 ovarian
  TGI: > 100 µM
OVCAR-5 ovarian
  TGI: > 100 µM
OVCAR-8 ovarian
  TGI: > 100 µM
P388 leukemia
  TGI: > 100 µM
P388/ADR leukemia
  TGI: > 100 µM
RPMI-8226 leukemia
  TGI: > 100 µM
RXF 393 renal
  TGI: > 100 µM
SF-268 CNS
  TGI: > 100 µM
SF-295 CNS
  TGI: > 100 µM
SF-539 CNS
  TGI: > 100 µM
SK-MEL-2 melanoma
  TGI: > 100 µM
SK-MEL-28 melanoma
  TGI: > 100 µM
SK-MEL-5 melanoma
  TGI: > 100 µM
SK-OV-3 ovarian
  TGI: > 100 µM
SN12C renal
  TGI: > 100 µM
SN12K1 renal
  TGI: > 67.4 µM
SNB-19 CNS
  TGI: > 100 µM
SNB-75 CNS
  TGI: > 100 µM
SNB-78 CNS
  TGI: > 100 µM
SW-620 colon
  TGI: > 100 µM
U251 CNS
  TGI: > 100 µM
UACC-257 melanoma
  TGI: > 55.8 µM
UACC-62 melanoma
  TGI: > 100 µM
UO-31 renal
  TGI: > 100 µM
XF 498 CNS
  TGI: > 100 µM
